Source: paper PMC5218480 (PLoS ONE, 2017)

Tested on: MV-4-11 cells
Assay: Gene expression microarray analysis (Affymetrix PrimeView) and GSEA
Format: cell-based, human
Design: RFU PODN (11730768_x_at) / Fold change /veh PODN (11730768_x_at) / RFU LINC00158 (11744669_a_at) / Fold change /veh LINC00158 (11744669_a_at) / RFU DUSP10 (11751237_a_at) / Fold change /veh DUSP10 (11751237_a_at) / RFU ID3 (11757404_x_at) / Fold change /veh ID3 (11757404_x_at) / RFU PLEKHG5 (11737974_s_at) / Fold change /veh PLEKHG5 (11737974_s_at) / RFU LRRC4B (11730491_at) / Fold change /veh LRRC4B (11730491_at) / RFU GIMAP4 (11747438_a_at) / Fold change /veh GIMAP4 (11747438_a_at) / RFU KRT8 (11758183_x_at) / Fold change /veh KRT8 (11758183_x_at) / RFU CNN1 (11734310_a_at) / Fold change /veh CNN1 (11734310_a_at) / RFU VPS37D (11726825_at) / Fold change /veh VPS37D (11726825_at) / RFU C10orf10 (11716522_x_at) / Fold change /veh C10orf10 (11716522_x_at) / RFU KIR2DL2 /// KIR2DL4 /// KIR2DL5A /// KIR2DL5B /// KIR2DS1 /// KIR2DS2 /// KIR2DS3 /// KIR2DS4 /// KIR3DL3 /// KIR3DL3 /// KIR3DS1 (11738374_at) / Fold change /veh KIR2DL2 /// KIR2DL4 /// KIR2DL5A /// KIR2DL5B /// KIR2DS1 /// KIR2DS2 /// KIR2DS3 /// KIR2DS4 /// KIR3DL3 /// KIR3DL3 /// KIR3DS1 (11738374_at) / RFU C1QL1 (11718748_at) / Fold change /veh C1QL1 (11718748_at) / RFU TMPRSS4 (11747572_a_at) / Fold change /veh TMPRSS4 (11747572_a_at) / RFU HAMP (11756126_x_at) / Fold change /veh HAMP (11756126_x_at) / RFU RNFT2 (11725882_a_at) / Fold change /veh RNFT2 (11725882_a_at) / RFU NR4A2 (11747474_a_at) / Fold change /veh NR4A2 (11747474_a_at) / RFU ABCC12 (11746883_a_at) / Fold change /veh ABCC12 (11746883_a_at) / RFU TMEM136 (11760407_x_at) / Fold change /veh TMEM136 (11760407_x_at) / RFU CLDN22 /// WWC2 (11732394_at) / Fold change /veh CLDN22 /// WWC2 (11732394_at) / RFU HLA-DPB1 (11760878_x_at) / Fold change /veh HLA-DPB1 (11760878_x_at) / RFU SPINT1 (11716480_a_at) / Fold change /veh SPINT1 (11716480_a_at) / RFU GAP43 (11754022_s_at) / Fold change /veh GAP43 (11754022_s_at) / RFU A4GNT (11735810_at) / Fold change /veh A4GNT (11735810_at) / RFU PRB3 (11715151_x_at) / Fold change /veh PRB3 (11715151_x_at) / RFU TUBB4B (11761932_at) / Fold change /veh TUBB4B (11761932_at) / RFU CAPN14 (11732068_a_at) / Fold change /veh CAPN14 (11732068_a_at) / RFU TMCC2 (11721928_a_at) / Fold change /veh TMCC2 (11721928_a_at) / RFU IRGQ (11745062_a_at) / Fold change /veh IRGQ (11745062_a_at) / RFU FAM174B (11720279_a_at) / Fold change /veh FAM174B (11720279_a_at) / RFU TMPRSS4 (11748680_a_at) / Fold change /veh TMPRSS4 (11748680_a_at) / RFU FAM212B (11763350_a_at) / Fold change /veh FAM212B (11763350_a_at) / RFU PLEKHG5 (11743358_a_at) / Fold change /veh PLEKHG5 (11743358_a_at) / RFU ZSCAN30 (11745921_a_at) / Fold change /veh ZSCAN30 (11745921_a_at) / RFU CMKLR1 (11741424_a_at) / Fold change /veh CMKLR1 (11741424_a_at) / RFU LOC101060620 /// MAPK8IP1 (11723275_at) / Fold change /veh LOC101060620 /// MAPK8IP1 (11723275_at) / RFU SPTSSB (11747773_x_at) / Fold change /veh SPTSSB (11747773_x_at) / RFU PRSS12 (11739890_at) / Fold change /veh PRSS12 (11739890_at) / RFU BIN1 (11741810_x_at) / Fold change /veh BIN1 (11741810_x_at) / RFU WNT11 (11732464_a_at) / Fold change /veh WNT11 (11732464_a_at) / RFU C10orf10 (11716521_a_at) / Fold change /veh C10orf10 (11716521_a_at) / RFU C5orf56 (11738089_at) / Fold change /veh C5orf56 (11738089_at) / RFU CYB561 (11721691_x_at) / Fold change /veh CYB561 (11721691_x_at) / RFU ANKRD19P (11752326_a_at) / Fold change /veh ANKRD19P (11752326_a_at) / RFU OR2T12 /// OR2T33 /// OR2T8 (11738714_s_at) / Fold change /veh OR2T12 /// OR2T33 /// OR2T8 (11738714_s_at) / RFU VCAN (11748164_a_at) / Fold change /veh VCAN (11748164_a_at) / RFU JSRP1 (11732532_at) / Fold change /veh JSRP1 (11732532_at) / RFU KRTAP10-11 (11738290_x_at) / Fold change /veh KRTAP10-11 (11738290_x_at) / RFU MYO3A (11730013_a_at) / Fold change /veh MYO3A (11730013_a_at) / RFU EBF3 (11725865_a_at) / Fold change /veh EBF3 (11725865_a_at) / RFU CAMK2N1 (11719241_x_at) / Fold change /veh CAMK2N1 (11719241_x_at) / RFU C5orf56 (11738088_a_at) / Fold change /veh C5orf56 (11738088_a_at) / RFU OLFML3 (11715873_a_at) / Fold change /veh OLFML3 (11715873_a_at) / RFU LOC100653217 /// NTM (11731650_a_at) / Fold change /veh LOC100653217 /// NTM (11731650_a_at) / RFU MAPK11 (11762145_a_at) / Fold change /veh MAPK11 (11762145_a_at) / RFU FIZ1 (11724087_x_at) / Fold change /veh FIZ1 (11724087_x_at) / RFU OASL (11726364_x_at) / Fold change /veh OASL (11726364_x_at) / RFU SOX15 (11748057_x_at) / Fold change /veh SOX15 (11748057_x_at) / RFU CD79A (11719716_a_at) / Fold change /veh CD79A (11719716_a_at) / RFU HIST1H1D (11736915_at) / Fold change /veh HIST1H1D (11736915_at) / RFU CASKIN2 (11723855_a_at) / Fold change /veh CASKIN2 (11723855_a_at) / RFU LOC730098 (11760151_x_at) / Fold change /veh LOC730098 (11760151_x_at) / RFU OR4N2 (11742367_at) / Fold change /veh OR4N2 (11742367_at) / RFU PRRT2 (11749266_a_at) / Fold change /veh PRRT2 (11749266_a_at) / RFU SNX32 (11753110_a_at) / Fold change /veh SNX32 (11753110_a_at) / RFU CDHR5 (11726645_a_at) / Fold change /veh CDHR5 (11726645_a_at) / RFU RCAN1 (11760418_a_at) / Fold change /veh RCAN1 (11760418_a_at) / RFU FAM167A (11723789_a_at) / Fold change /veh FAM167A (11723789_a_at) / RFU FAM26E (11764081_at) / Fold change /veh FAM26E (11764081_at) / RFU ISYNA1 (11749810_s_at) / Fold change /veh ISYNA1 (11749810_s_at) / RFU ACY1 (11761880_at) / Fold change /veh ACY1 (11761880_at) / RFU 11764098_at / Fold change /veh 11764098_at / RFU SAMD14 (11745864_x_at) / Fold change /veh SAMD14 (11745864_x_at) / RFU NPB (11741838_a_at) / Fold change /veh NPB (11741838_a_at) / RFU TMPRSS6 (11731388_a_at) / Fold change /veh TMPRSS6 (11731388_a_at) / RFU KRTAP10-2 (11738614_at) / Fold change /veh KRTAP10-2 (11738614_at) / RFU ARHGAP8 /// PRR5-ARHGAP8 (11727945_x_at) / Fold change /veh ARHGAP8 /// PRR5-ARHGAP8 (11727945_x_at) / RFU KRTAP5-7 /// NADSYN1 (11734609_at) / Fold change /veh KRTAP5-7 /// NADSYN1 (11734609_at) / RFU RASL12 (11751679_a_at) / Fold change /veh RASL12 (11751679_a_at) / RFU CDKN2B (11736163_a_at) / Fold change /veh CDKN2B (11736163_a_at) / RFU PRF1 (11729649_at) / Fold change /veh PRF1 (11729649_at) / RFU, ZNF638 /// ZNF638-IT1 / Fold change vs veh, ZNF638 /// ZNF638-IT1 / RFU, PANK3 / Fold change vs veh, PANK3 / RFU, SH3YL1 / Fold change vs veh, SH3YL1 / RFU, ZEB2 / Fold change vs veh, ZEB2 / RFU, NRIP1 / Fold change vs veh, NRIP1 / RFU, PTTG1IP / Fold change vs veh, PTTG1IP / RFU, CAPN2 / Fold change vs veh, CAPN2 / RFU, MED14 / Fold change vs veh, MED14 / RFU, SNORA58 / Fold change vs veh, SNORA58 / RFU, C1orf63 / Fold change vs veh, C1orf63 / RFU, LRRFIP1 / Fold change vs veh, LRRFIP1 / RFU, NDUFAF7 / Fold change vs veh, NDUFAF7 / RFU, SLC12A2 / Fold change vs veh, SLC12A2 / RFU, IBTK / Fold change vs veh, IBTK / RFU, ESF1 / Fold change vs veh, ESF1 / Fold change vs veh, TMEM50B / RFU, TAOK1 / Fold change vs veh, TAOK1 / RFU, ACBD3 / Fold change vs veh, ACBD3 / RFU, TMA16 / Fold change vs veh, TMA16 / RFU, RWDD3 / Fold change vs veh, RWDD3 / RFU, BCAT1 / Fold change vs veh, BCAT1 / RFU, EDEM3 / Fold change vs veh, EDEM3 / RFU, TMEM33 / Fold change vs veh, TMEM33 / RFU, WDR75 / Fold change vs veh, WDR75 / RFU, AHCTF1 / Fold change vs veh, AHCTF1 / RFU, TFRC / Fold change vs veh, TFRC / RFU, ZDHHC17 / Fold change vs veh, ZDHHC17 / RFU, NOM1 / Fold change vs veh, NOM1 / RFU, ARL8B / Fold change vs veh, ARL8B / RFU, ZBTB11 / Fold change vs veh, ZBTB11 / RFU, TAMM41 / Fold change vs veh, TAMM41 / RFU, KIAA1704 /// LOC100996395 / Fold change vs veh, KIAA1704 /// LOC100996395 / RFU, ING1 / Fold change vs veh, ING1 / RFU, TRMT61B / Fold change vs veh, TRMT61B / RFU, FUBP3 / Fold change vs veh, FUBP3 / RFU, TP53 / Fold change vs veh, TP53 / RFU, TNKS2 / Fold change vs veh, TNKS2 / RFU, ZFP14 / Fold change vs veh, ZFP14 / RFU, ACTR2 / Fold change vs veh, ACTR2 / RFU, PPP3R1 / Fold change vs veh, PPP3R1 / RFU, PIK3R1 / Fold change vs veh, PIK3R1 / RFU, HNRNPA1 / Fold change vs veh, HNRNPA1 / RFU, RNF170 / Fold change vs veh, RNF170 / RFU, ZNF28 / Fold change vs veh, ZNF28 / RFU, RNGTT / Fold change vs veh, RNGTT / RFU, OGT / Fold change vs veh, OGT / RFU, BRD1 / Fold change vs veh, BRD1 / RFU, MARS / Fold change vs veh, MARS / RFU, ZNF655 / Fold change vs veh, ZNF655 / RFU, FAHD1 / Fold change vs veh, FAHD1 / RFU, BDP1 / Fold change vs veh, BDP1 / RFU, LRRCC1 / Fold change vs veh, LRRCC1 / RFU, ARID1A / Fold change vs veh, ARID1A / RFU, ZNF146 / Fold change vs veh, ZNF146 / RFU, ZNF330 / Fold change vs veh, ZNF330 / RFU, GPN3 / Fold change vs veh, GPN3 / RFU, C9orf123 / Fold change vs veh, C9orf123 / RFU, N4BP2L2 / Fold change vs veh, N4BP2L2 / RFU, ARFIP1 / Fold change vs veh, ARFIP1 / RFU, FAM179B / Fold change vs veh, FAM179B / RFU, BCL10 / Fold change vs veh, BCL10 / RFU, UHRF1BP1L / Fold change vs veh, UHRF1BP1L / RFU, BET1 / Fold change vs veh, BET1 / RFU, CNOT2 / Fold change vs veh, CNOT2 / RFU, ZNF268 / Fold change vs veh, ZNF268 / Fold change vs veh, ZNF507 / RFU, DGCR2 / Fold change vs veh, DGCR2 / RFU, WDSUB1 / Fold change vs veh, WDSUB1 / Fold change vs veh, HSP90B1 /// MIR3652 / RFU, ADSS / Fold change vs veh, ADSS / RFU, GK / Fold change vs veh, GK / RFU, ZNF148 / Fold change vs veh, ZNF148 / RFU, TAF9 / Fold change vs veh, TAF9 / RFU, SLC1A5 / Fold change vs veh, SLC1A5 / RFU, SLMO2 / Fold change vs veh, SLMO2 / RFU, ABCC4 / Fold change vs veh, ABCC4 / RFU, LOC101060439 /// RAP1B / Fold change vs veh, LOC101060439 /// RAP1B / RFU, RFX7 / Fold change vs veh, RFX7 / RFU, GTPBP10 / Fold change vs veh, GTPBP10 / RFU, CNEP1R1 / Fold change vs veh, CNEP1R1 / RFU, BIVM-ERCC5 /// ERCC5 / Fold change vs veh, BIVM-ERCC5 /// ERCC5 / RFU, ILF3 / Fold change vs veh, ILF3 / RFU 11762660_at / Fold change /veh 11762660_at / RFU VCAN (11757783_s_at) / Fold change /veh VCAN (11757783_s_at) / RFU DDX43 (11728927_at) / Fold change /veh DDX43 (11728927_at) / RFU KRT8 (11758188_x_at) / Fold change /veh KRT8 (11758188_x_at) / RFU NKD1 (11759106_at) / Fold change /veh NKD1 (11759106_at) / RFU SRD5A1 (11742802_a_at) / Fold change /veh SRD5A1 (11742802_a_at) / RFU TPSAB1 /// TPSB2 (11721975_s_at) / Fold change /veh TPSAB1 /// TPSB2 (11721975_s_at) / RFU GSTM3 (11746129_a_at) / Fold change /veh GSTM3 (11746129_a_at) / RFU IL23R (11737362_x_at) / Fold change /veh IL23R (11737362_x_at) / RFU TMEM51 (11727254_a_at) / Fold change /veh TMEM51 (11727254_a_at) / RFU PIWIL2 (11732686_x_at) / Fold change /veh PIWIL2 (11732686_x_at) / RFU ORM1 (11744905_x_at) / Fold change /veh ORM1 (11744905_x_at) / RFU CCDC152 (11743942_at) / Fold change /veh CCDC152 (11743942_at) / RFU ECM1 (11717891_a_at) / Fold change /veh ECM1 (11717891_a_at) / RFU IL23R (11748794_a_at) / Fold change /veh IL23R (11748794_a_at) / RFU TNFAIP8L3 (11732012_x_at) / Fold change /veh TNFAIP8L3 (11732012_x_at) / RFU MBOAT4 (11741988_at) / Fold change /veh MBOAT4 (11741988_at) / RFU 11764193_at / Fold change /veh 11764193_at / RFU TMEM53 (11763286_at) / Fold change /veh TMEM53 (11763286_at) / RFU MAGEB2 (11727129_at) / Fold change /veh MAGEB2 (11727129_at) / RFU TMEM200A (11744735_a_at) / Fold change /veh TMEM200A (11744735_a_at) / RFU CCDC152 (11751479_a_at) / Fold change /veh CCDC152 (11751479_a_at) / RFU FAM211A (11726209_a_at) / Fold change /veh FAM211A (11726209_a_at) / RFU RGS16 (11746705_a_at) / Fold change /veh RGS16 (11746705_a_at) / RFU VCAN (11755009_s_at) / Fold change /veh VCAN (11755009_s_at) / RFU RHOB (11743442_s_at) / Fold change /veh RHOB (11743442_s_at) / RFU RGS16 (11720943_a_at) / Fold change /veh RGS16 (11720943_a_at) / RFU RGS16 (11720944_at) / Fold change /veh RGS16 (11720944_at) / RFU, VPS4B / Fold change vs veh, VPS4B / RFU, CREB1 / Fold change vs veh, CREB1 / RFU, DNAJC13 / Fold change vs veh, DNAJC13 / RFU, GNAQ / Fold change vs veh, GNAQ / RFU, CDK5R1 / Fold change vs veh, CDK5R1 / RFU, ZRANB3 / Fold change vs veh, ZRANB3 / RFU, CUL4A / Fold change vs veh, CUL4A / RFU, CCNY / Fold change vs veh, CCNY / RFU, UFL1 / Fold change vs veh, UFL1 / RFU, COG3 / Fold change vs veh, COG3 / RFU, DIAPH2 / Fold change vs veh, DIAPH2 / RFU, SKA2 / Fold change vs veh, SKA2 / RFU, AFF3 / Fold change vs veh, AFF3 / RFU, LMF1 / Fold change vs veh, LMF1 / RFU, IPO11 / Fold change vs veh, IPO11 / RFU, DFFB / Fold change vs veh, DFFB / RFU, FOXP1 / Fold change vs veh, FOXP1 / RFU, CARD8 / Fold change vs veh, CARD8 / RFU, STRN3 / Fold change vs veh, STRN3 / RFU, ADK / Fold change vs veh, ADK / RFU, RASSF2 / Fold change vs veh, RASSF2 / RFU, WIPF1 / Fold change vs veh, WIPF1 / RFU, LARP1B / Fold change vs veh, LARP1B / RFU, RASA1 / Fold change vs veh, RASA1 / RFU, RB1 / Fold change vs veh, RB1 / RFU, PPFIA1 / Fold change vs veh, PPFIA1 / RFU, MAT2A / Fold change vs veh, MAT2A / RFU, CCT5 / Fold change vs veh, CCT5 / RFU, WDR92 / Fold change vs veh, WDR92 / RFU, CUX1 / Fold change vs veh, CUX1 / RFU, TTC7A / Fold change vs veh, TTC7A / RFU, TMEM135 / Fold change vs veh, TMEM135 / RFU, DEPTOR / Fold change vs veh, DEPTOR / RFU, CPM / Fold change vs veh, CPM / RFU, DNAJB6 / Fold change vs veh, DNAJB6 / RFU, CACNA2D3 / Fold change vs veh, CACNA2D3 / RFU, DTX4 / Fold change vs veh, DTX4 / RFU, TFCP2 / Fold change vs veh, TFCP2 / RFU, GMCL1 /// GMCL1P1 / Fold change vs veh, GMCL1 /// GMCL1P1 / RFU, AEBP2 / Fold change vs veh, AEBP2 / RFU, SNHG1 /// SNORD22 /// SNORD25 /// SNORD26 /// SNORD27 /// SNORD28 /// SNORD29 /// SNORD31 / Fold change vs veh, SNHG1 /// SNORD22 /// SNORD25 /// SNORD26 /// SNORD27 /// SNORD28 /// SNORD29 /// SNORD31 / Fold change (Aza/veh), C12orf56 (ProbeSet 11735607_a_at) / Fold change (ACY-1035/veh), C12orf56 (ProbeSet 11735607_a_at) / Fold change (Aza/veh), FGFR1OP (ProbeSet 11751329_s_at) / Fold change (ACY-1035/veh), FGFR1OP (ProbeSet 11751329_s_at) / Fold change (Aza/veh), VPS36 (ProbeSet 11739960_a_at) / Fold change (ACY-1035/veh), VPS36 (ProbeSet 11739960_a_at) / RFU SYPL1 (11715823_x_at) / Fold change /veh SYPL1 (11715823_x_at) / RFU IGFBP7 (11715501_s_at) / Fold change /veh IGFBP7 (11715501_s_at) / RFU REEP3 (11722064_at) / Fold change /veh REEP3 (11722064_at) / RFU IGLL1 (11728026_x_at) / Fold change /veh IGLL1 (11728026_x_at): dose or concentration left out as unconfirmed
Settings: MV-4-11 cells, 48 hours

Compound: Nc1ncn([C@@H]2O[C@H](CO)[C@@H](O)[C@H]2O)c(=O)n1 [azacitidine]
- RFU C10orf10 (11716521_a_at): 42.51 RFU
